Measured values as given in ChEMBL document CHEMBL4699459, “Structure activity study of S-trityl-cysteamine dimethylaminopyridine derivatives as SIRT2 inhibitors: Improvement of SIRT2 binding and inhibition” (Bioorg Med Chem Lett, 2020).

Key:
[1] = molecular target: T1, NAD-dependent protein deacetylase sirtuin-2 (Homo sapiens, UniProt Q8IXJ6); assay: Inhibition of recombinant SIRT2 (unknown origin) using FAM-labeled RHKK(Ac) LM peptide as substrate incubated for 60 mins by electrophoretic mobility shift assay
T1 sequence (Q8IXJ6 whole entry): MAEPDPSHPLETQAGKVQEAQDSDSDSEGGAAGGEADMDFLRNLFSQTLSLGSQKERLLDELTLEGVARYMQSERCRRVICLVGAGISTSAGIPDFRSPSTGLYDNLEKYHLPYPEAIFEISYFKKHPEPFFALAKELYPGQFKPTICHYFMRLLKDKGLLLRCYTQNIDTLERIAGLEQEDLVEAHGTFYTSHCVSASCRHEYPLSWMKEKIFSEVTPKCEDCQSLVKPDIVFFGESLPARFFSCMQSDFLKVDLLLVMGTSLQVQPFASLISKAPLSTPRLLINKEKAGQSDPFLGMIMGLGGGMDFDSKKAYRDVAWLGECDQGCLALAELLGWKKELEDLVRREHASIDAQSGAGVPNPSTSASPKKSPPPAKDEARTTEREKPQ

MCF7 = assay: Antiproliferative activity against human MCF7 cells assessed as reduction in cell proliferation measured after 3 days by MTT assay; type: functional, cell-based; details: MCF7, 72 h
HeLa = assay: Antiproliferative activity against human HeLa cells assessed as reduction in cell proliferation measured after 3 days by MTT assay; type: functional, cell-based; details: 72 h
K562 = assay: Antiproliferative activity against human K562 cells assessed as reduction in cell proliferation measured after 3 days by MTT assay; type: functional, cell-based; details: K562, 72 h
MT2 = assay: Cytotoxicity against human MT2 cells assessed as reduction in cell proliferation measured after 3 days by MTT assay; type: cell-based; details: MT2, 72 h
HL-60 = assay: Antiproliferative activity against human HL-60 cells assessed as reduction in cell proliferation measured after 3 days by MTT assay; type: functional, cell-based; details: HL-60, 72 h

| SMILES | IC50 [1] | IC50 (MCF7) | IC50 (HeLa) | IC50 (K562) | IC50 (MT2) | IC50 (HL-60) |
| --- | --- | --- | --- | --- | --- | --- |
| CN(C)c1ccnc(CNCCS)c1 | > 100 µM | – | – | – | – | – |
| c1ccc(C(SCCNCc2ccccn2)(c2ccccc2)c2ccccc2)cc1 | 39.3 µM | 7.44 µM | 4.15 µM | 3.15 µM | 3.56 µM | 5.76 µM |
| CN(C)c1ccnc(CNCCSC(C)(C)C)c1 | > 100 µM | – | – | – | – | – |
| CCN(CC)c1ccnc(CNCCSC(c2ccccc2)(c2ccccc2)c2ccccc2)c1 | 7.6 µM | 4.97 µM | 1.32 µM | 1.11 µM | 2.22 µM | 2.68 µM |
| COC(=O)[C@@H](CSC(c1ccccc1)(c1ccccc1)c1ccccc1)NCc1cc(N(C)C)ccn1 | 10.8 µM | 3.16 µM | 1.56 µM | 2.17 µM | 3.15 µM | 0.45 µM |
| CN(C)c1cccc(CNCCSC(c2ccccc2)(c2ccccc2)c2ccccc2)c1 | > 100 µM | – | – | – | – | – |
| CN(C)c1ccnc(CNCCSC(c2ccccc2)(c2ccccc2)c2ccccc2)c1 | 7.5 µM | 5.1 µM | 2.25 µM | 2.44 µM | 3.16 µM | 1.87 µM |
| CN(C)c1ccc(CNCCSC(c2ccccc2)(c2ccccc2)c2ccccc2)c(Cl)c1 | > 100 µM | – | – | – | – | – |
| NCCSC(c1ccccc1)(c1ccccc1)c1ccccc1 | > 100 µM | – | – | – | – | – |
| CN(C)c1ccnc(C(=O)NCCSC(c2ccccc2)(c2ccccc2)c2ccccc2)c1 | > 100 µM | – | – | – | – | – |
| COc1cc(N(C)C)ccc1CNCCSC(c1ccccc1)(c1ccccc1)c1ccccc1 | > 100 µM | – | – | – | – | – |
